Assays:
Experiment in all cases: relative viability (nuclei count vs DMSO), 5 days (fraction); higher = more cells survive
[1] = compound: CCCS(=O)(=O)Nc1ccc(F)c(C(=O)c2c[nH]c3ncc(-c4ccc(Cl)cc4)cc23)c1F [Vemurafenib] + CS(=O)(=O)CCNCc1ccc(-c2ccc3ncnc(Nc4ccc(OCc5cccc(F)c5)c(Cl)c4)c3c2)o1 [Lapatinib] (partner 2 µM)
Procedure, shortened: (§1)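 After 5 days of treatment, lung cancer cells in 1536-well plates were fixed and stained in a single step (final 0.05% Triton X-100, 1% formaldehyde, 1 ug/ml Hoechst) and their nuclei counted on 4× images. Treatment had been applied by pin tool the day after seeding as one drug alone or as a fixed anchor-drug dose with five library-drug doses (not always all listed) in √10 steps. Relative viability is the nuclei count of treated wells divided by that of vehicle wells, and values are medians of duplicate plates.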

[2] = compound: CCCS(=O)(=O)Nc1ccc(F)c(C(=O)c2c[nH]c3ncc(-c4ccc(Cl)cc4)cc23)c1F [Vemurafenib] + C[C@@H](Oc1cc(-c2cnn(C3CCNCC3)c2)cnc1N)c1c(Cl)ccc(F)c1Cl [Crizotinib] (partner 1 µM)
Procedure, shortened: as §1

[3] = compound: COc1cccc2cc(-c3nc([C@H]4CC[C@H](C(=O)O)CC4)n4ncnc(N)c34)[nH]c12 [OSI-027] + Nc1nc2[nH]cc(CCc3ccc(C(=O)N[C@@H](CCC(=O)O)C(=O)O)cc3)c2c(=O)[nH]1 [Pemetrexed] (partner 0.2 µM)
Procedure, shortened: as §1

[4] = compound: COc1cccc2cc(-c3nc([C@H]4CC[C@H](C(=O)O)CC4)n4ncnc(N)c34)[nH]c12 [OSI-027] + O=C(CCCCCCC(=O)Nc1ccccc1)NO [Vorinostat] (partner 1 µM)
Procedure, shortened: as §1

In the case of UMC-11, the relative viability ([1]; first compound 0.03162 µM) is reported as 0.698, the relative viability ([1]; first compound 0.1 µM) is reported as 0.956 and the relative viability ([1]; first compound 0.3162 µM) is reported as 0.73. The relative viability ([1]; first compound 1 µM) was 0.625, the relative viability ([2]; first compound 0.03162 µM) was 0.638 and the relative viability ([2]; first compound 0.1 µM) was 0.616. It also gave a relative viability ([2]; first compound 0.3162 µM) of 0.629, a relative viability ([2]; first compound 1 µM) of 0.633 and a relative viability ([3]; first compound 0.01 µM) of 0.994. It also gave a relative viability ([3]; first compound 0.03162 µM) of 0.77, a relative viability ([3]; first compound 0.1 µM) of 0.658 and a relative viability ([3]; first compound 0.3162 µM) of 0.585. It also gave a relative viability ([3]; first compound 1 µM) of 0.444, a relative viability ([4]; first compound 0.01 µM) of 0.379 and a relative viability ([4]; first compound 0.03162 µM) of 0.371. The relative viability ([4]; first compound 0.1 µM) was 0.376, the relative viability ([4]; first compound 0.3162 µM) was 0.348 and the relative viability ([4]; first compound 1 µM) was 0.275.

From the supplement of paper PMC10307832
